Where two headings read alike, the source gives them in different places.
Columns and labels:
Assay type in all cases: cell-based
[1] = test system: BHK-21 cells; assay: Anti-fibrosis activity test: inhibition of BHK-21 cell proliferation (CCK-8); details: Mesocricetus auratus, BHK-21, 48 h
Summary of the method: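 Each concentration was tested in triplicate on adhered BHK-21 cells for 48 h, with pirfenidone as reference. A 2 h CCK-8 incubation preceded absorbance reading at 450 nm, and IC50 was obtained from percent inhibition versus blank.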

[2] = test system: human lung fibroblasts HFL1; assay: Anti-fibrosis activity test: inhibition of proliferation of human lung fibroblasts HFL1 (CCK-8); details: Homo sapiens, HFL1, 48 h
Summary of the method: (§1)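 A CCK-8 proliferation assay was run: cells at 2×10^4 cells/mL, adherent for 24 h, then incubated 48 h at 37° C with compound dilutions. A450 was recorded 2 h after CCK-8 addition and converted to percent inhibition versus blank for IC50 determination.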

[3] = test system: human hepatic stellate cells LX-2; assay: Anti-fibrosis activity test: inhibition of proliferation of human hepatic stellate cells LX-2 (CCK-8); details: Homo sapiens, 48 h
Summary of the method: as §1

[4] = test system: human fibrosarcoma cells HT-1080; assay: Anti-fibrosis activity test: inhibition of proliferation of human fibrosarcoma cells HT-1080 (CCK-8)
Summary of the method: as §1

[5] = test system: human dermal fibroblasts CCC-ESF-1; assay: Anti-fibrosis activity test: inhibition of proliferation of human dermal fibroblasts CCC-ESF-1 (CCK-8); details: Fibroblast
Summary of the method: as §1

[6] = test system: human embryonic lung fibroblast IMR-90; assay: Anti-fibrosis activity test: inhibition of proliferation of human embryonic lung fibroblast IMR-90 (CCK-8)
Summary of the method: as §1

[7] = test system: cardiac fibroblast RAT-iCell-C002; assay: Anti-fibrosis activity test: inhibition of proliferation of cardiac fibroblast RAT-iCell-C002 (CCK-8); details: Cardiac fibroblast, 48 h
Summary of the method: as §1

[8] = test system: mouse macrophages (RAW264.7); assay: Lipopolysaccharide-induced NO secretion in macrophages (Griess); details: RAW264.7, LPS 1 μg/ml, a/b isomers given as first/second symbol, read-out: IC50 (μM), inhibition of lipopolysaccharide-induced NO secretion in macrophages
Method: The effects of the compounds of the present application on the lipopolysaccharide-induced NO secretion in macrophage was tested Principle: Anti-inflammatory drug activity screening is to detect the inhibitory effect of compounds on NO production in the mouse macrophages (RAW264.7). When immune cells are stimulated by microbial endotoxin, inflammatory mediators, etc., a large amount of induced NO synthase (iNOS) is produced, and thus NO is generated for immune response. Accordingly, the inhibition of NO production can serve as a direct indicator of the anti-inflammatory activity of the compound. The activity of the compound to inhibit NO production at the cellular level is directly evaluated in the abovementioned test model, thereby reflecting the anti-inflammatory activity of the compound. In this experiment, the content of NO in the medium was detected by Gris kit (Molecular probes, G-7921). Macrophages (Raw264.7) were cultured in DMEM medium containing 10% fetal bovine serum, with the cell concentration adjusted. The cells were seeded in 24-well cell culture plates, cultured in an incubator, and the test samples in different concentrations were added every other day. The blank medium was used as a blank control, and commercially available indomethacin and resveratrol were employed as positive controls. After the addition of lipopolysaccharide (LPS, 1 μg/ml), incubation was performed for 24 hours. Then the supernatant culture solution was taken, to […] reagent was added, and the absorbance value was measured by a microplate reader at 548 nm. Inhibition rate=([…])×100%.

[9] = CCK-8, 48 hours after administration
[10] = human lung fibroblasts HFL1, CCK-8, 48 hours
[11] = human hepatic stellate cells LX-2, CCK-8, 48 hours
[12] = Homo sapiens, HT-1080, 48 h, human fibrosarcoma cells HT-1080, CCK-8, 48 hours
[13] = human dermal fibroblasts CCC-ESF-1, CCK-8, 48 hours
[14] = human embryonic lung fibroblast IMR-90, CCK-8, 48 hours
[15] = cardiac fibroblast RAT-iCell-C002, CCK-8, 48 hours
[16] = Homo sapiens, HT-1080, 48 h, HT-1080 cells, 48 h, CCK-8
[17] = Homo sapiens, CCC-ESF-1 cells, 48 h, CCK-8
[18] = Homo sapiens, IMR-90 cells, 48 h, CCK-8

Measured: IC50

CCn1c2c(c(=O)c3cc(F)ccc31)C(=O)n1cccc1-2 [Compound 104a, 4-Ethyl-7-fluoro-9H-pyrrolizino[1,2-b]quinoline-9,10(4H)-dione]
0.05 to 5 mM: [2]; [10] | [3]; [11] | [4]; [12] | [5]; [13] | [6]; [14] | [7]; [15]
< 0.05 mM: [1]; [9]
1 to 10 µM: [8]; Mus musculus, RAW264.7, 24 h

O=C1c2c(c(=O)c3ccccc3n2CCCN2CCNCC2)-c2cccn21 [Compound 793a, 6-(3-(Piperazin-1-yl)propyl)-5H-pyrrolizino[2,1-b]quinoline-5,11(6H)-dione]
0.05 to 5 mM: [1]; 48 h, CCK-8 | [2]; HFL1 cells, 48 h, CCK-8 | [3]; LX-2, 48 h, LX-2 cells, CCK-8 | [4]; [16] | [5]; [17] | [6]; [18] | [7]; RAT-iCell-C002 cells, CCK-8
0.1 to 1 µM: [8]; Mus musculus, RAW264.7, 24 h

O=C1c2c(nc3cc(N4CCNCC4)c(F)cc3c2OC2CC2)-c2cccn21 [Compound 340b, 9-cyclopropoxy-7-fluoro-6-(piperazin-1-yl)-10H-pyrrolizino[1,2-b]quinolin-10-one]
1 to 10 µM: [8]; Mus musculus, RAW264.7, 24 h
0.05 to 5 mM: [1]; [9] | [2]; [10] | [3]; [11] | [4]; [12] | [5]; [13] | [6]; [14] | [7]; [15]

CC(C)=CCOc1c2c(nc3cc(N4CCNCC4)c(F)cc13)-c1cccn1C2=O [Compound 354b, 7-fluoro-9-((3-methylbut-2-en-1-yl)oxy)-6-(piperazin-1-yl)-10H-pyrrolizino[1,2-b]quinolin-10-one]
0.05 to 5 mM: [1]; [9] | [2]; [10] | [4]; [12] | [5]; [13] | [6]; [14] | [7]; [15]
1 to 10 µM: [8]; Mus musculus, RAW264.7, 24 h
5 to 20 mM: [3]; [11]

O=C1c2c(nc3cc(N4CCNCC4)c(C(F)(F)F)cc3c2O)-c2cccn21 [Compound 397b, 9-hydroxy-6-(piperazin-1-yl)-7-(trifluoromethyl)-10H-pyrrolizino[1,2-b]quinolin-10-one]
0.1 to 1 µM: [8]; Mus musculus, RAW264.7, 24 h
0.05 to 5 mM: [1]; [9] | [2]; [10] | [3]; [11] | [4]; [12] | [5]; [13] | [6]; [14] | [7]; [15]

Cc1ccc2[nH]c3c(c(=O)c2c1)-c1cccn1C3=O [Compound 777a, 9-Methyl-5H-pyrrolizino[2,1-b]quinoline-5,11(6H)-dione]
10 to 50 µM: [8]; Mus musculus, RAW264.7, 24 h
0.05 to 5 mM: [2]; HFL1 cells, 48 h, CCK-8 | [3]; LX-2, 48 h, LX-2 cells, CCK-8 | [4]; [16] | [5]; [17] | [6]; [18] | [7]; RAT-iCell-C002 cells, CCK-8
< 0.05 mM: [1]; 48 h, CCK-8

O=C1c2c(nc3c(C(F)(F)F)c(N4CCNCC4)ccc3c2OCc2ccc(Cl)cc2)-c2cccn21 [Compound 483b, 9-((4-chlorobenzyl)oxy)-6-(piperazin-1-yl)-5-(trifluoromethyl)-10H-pyrrolizino[1,2-b]quinolin-10-one]
1 to 10 µM: [8]; 24 hours
0.05 to 5 mM: [1]; [9] | [2]; [10] | [3]; [11] | [5]; [13] | [6]; [14] | [7]; [15]
5 to 20 mM: [4]; human fibrosarcoma cells HT-1080, CCK-8, 48 hours

O=C1c2c(c(=O)c3ccccc3n2CCCCN2CCOCC2)-c2cccn21 [Compound 789a, 6-(4-Morpholinobutyl)-5H-pyrrolizino[2,1-b]quinoline-5,11(6H)-dione]
1 to 10 µM: [8]; Mus musculus, RAW264.7, 24 h
0.05 to 5 mM: [1]; 48 h, CCK-8 | [2]; HFL1 cells, 48 h, CCK-8 | [3]; LX-2, 48 h, LX-2 cells, CCK-8 | [4]; [16] | [5]; [17] | [6]; [18] | [7]; RAT-iCell-C002 cells, CCK-8

N#Cc1cccc2c(=O)c3c(n(Cc4ccccc4F)c12)-c1cccn1C3=O [Compound 456a, 4-(2-Fluorobenzyl)-9,10-dioxo-4,10-dihydro-9H-pyrrolizino[1,2-b]quinoline-5-carbonitrile]
1 to 10 µM: [8]; Mus musculus, RAW264.7, 24 h
0.05 to 5 mM: [1]; [9] | [2]; [10] | [4]; [12] | [5]; [13] | [6]; [14] | [7]; [15]
< 0.05 mM: [3]; [11]

O=C(O)COc1c2c(nc3ccc(F)cc13)-c1cccn1C2=O [Compound 153b, 2-((7-fluoro-10-oxo-10H-pyrrolizino[1,2-b]quinolin-9-yl)oxy)acetic acid]
0.05 to 5 mM: [1]; [9] | [2]; [10] | [3]; [11] | [4]; [12] | [5]; [13] | [6]; [14] | [7]; [15]
1 to 10 µM: [8]; Mus musculus, RAW264.7, 24 h

O=C1c2c(n(C(=O)c3ccco3)c3ccc(F)cc3c2=O)-c2cccn21 [Compound 150a, 7-Fluoro-4-(furan-2-carbonyl)-9H-pyrrolizino[1,2-b]quinoline-9,10(4H)-dione]
1 to 10 µM: [8]; Mus musculus, RAW264.7, 24 h
0.05 to 5 mM: [1]; [9] | [2]; [10] | [3]; [11] | [4]; [12] | [5]; [13] | [7]; [15]
< 0.05 mM: [6]; [14]

Cn1c2c(c(=O)c3cc(F)c(N4CCNCC4)cc31)C(=O)n1cccc1-2 [Compound 361a, 7-Fluoro-4-methyl-6-(piperazin-1-yl)-9H-pyrrolizino[1,2-b]quinoline-9,10(4H)-dione]
< 0.05 mM: [4]; [12]
0.05 to 5 mM: [1]; [9] | [2]; [10] | [3]; [11] | [5]; [13] | [6]; [14] | [7]; [15]
1 to 10 µM: [8]; Mus musculus, RAW264.7, 24 h

O=C1c2c(n(Cc3cccc(F)c3)c3cccc(F)c3c2=O)-c2cccn21 [Compound 475a, 8-Fluoro-4-(3-fluorobenzyl)-9H-pyrrolizino[1,2-b]quinoline-9,10(4H)-dione]
5 to 20 mM: [4]; [12]
1 to 10 µM: [8]; Mus musculus, RAW264.7, 24 h
0.05 to 5 mM: [1]; [9] | [2]; [10] | [3]; [11] | [5]; [13] | [6]; [14] | [7]; [15]

C=CCn1c2c(c(=O)c3cc(F)c(N4CCNCC4)cc31)C(=O)n1cccc1-2 [Compound 349a, 4-Allyl-7-fluoro-6-(piperazin-1-yl)-9H-pyrrolizino[1,2-b]quinoline-9,10(4H)-dione]
1 to 10 µM: [8]; Mus musculus, RAW264.7, 24 h
0.05 to 5 mM: [1]; [9] | [2]; [10] | [3]; [11] | [4]; [12] | [5]; [13] | [6]; [14] | [7]; [15]

O=C1c2c(nc3cc(Cl)ccc3c2OCc2ccccc2F)-c2cccn21 [Compound 504b, 6-chloro-9-((2-fluorobenzyl)oxy)-10H-pyrrolizino[1,2-b]quinolin-10-one]
1 to 10 µM: [8]; Mus musculus, RAW264.7, 24 h
0.05 to 5 mM: [1]; [9] | [2]; [10] | [3]; [11] | [4]; [12] | [5]; [13] | [6]; [14] | [7]; [15]

N#Cc1cccc2c(=O)c3c(n(Cc4cccc(F)c4)c12)-c1cccn1C3=O [Compound 454a, 4-(3-Fluorobenzyl)-9,10-dioxo-4,10-dihydro-9H-pyrrolizino[1,2-b]quinoline-5-carbonitrile]
0.05 to 5 mM: [1]; [9] | [2]; [10] | [3]; [11] | [4]; [12] | [5]; [13] | [6]; [14] | [7]; [15]
0.1 to 1 µM: [8]; Mus musculus, RAW264.7, 24 h

O=C1c2c(c(=O)c3ccccc3n2CCCCN2CCNCC2)-c2cccn21 [Compound 794a, 6-(4-(Piperazin-1-yl)butyl)-5H-pyrrolizino[2,1-b]quinoline-5,11(6H)-dione]
0.05 to 5 mM: [1]; 48 h, CCK-8 | [2]; HFL1 cells, 48 h, CCK-8 | [3]; LX-2, 48 h, LX-2 cells, CCK-8 | [4]; [16] | [5]; [17] | [6]; [18] | [7]; RAT-iCell-C002 cells, CCK-8
1 to 10 µM: [8]; Mus musculus, RAW264.7, 24 h

O=C1c2c(c(=O)c3ccccc3n2CCCN2CCCCC2)-c2cccn21 [Compound 786a, 6-(3-(Piperidin-1-yl)propyl)-5H-pyrrolizino[2,1-b]quinoline-5,11(6H)-dione]
0.05 to 5 mM: [1]; 48 h, CCK-8 | [2]; HFL1 cells, 48 h, CCK-8 | [3]; LX-2, 48 h, LX-2 cells, CCK-8 | [4]; [16] | [5]; [17] | [6]; [18] | [7]; RAT-iCell-C002 cells, CCK-8
1 to 10 µM: [8]; Mus musculus, RAW264.7, 24 h

Source: patent US11040028B2, “Penicinotam derivative, preparation method and use thereof” (OCEAN UNIVERSITY OF CHINA, priority 2017, dated 2021)
